Values of other authors as cited in US20240307352A1, “SACUBITRIL VALSARTAN SODIUM SUSTAINED-RELEASE COMPOSITION, AND PREPARATION METHOD THEREFOR AND USE THEREOF” (SHANGHAI AURORA BIOTECHNOLOGY CO., LTD., priority 2021, published 2024).

Test system: patients with heart failure with reduced ejection fraction (HF-REF)
Conditions: compared to enalapril-treated counterpart

octadecasodium hexa(4-{[(1S,3R)-1-([1,1′-biphenyl)-4-ylmethyl)-4-ethoxy-3-methyl-4-oxobutyl]amino}-4-oxobutyric acid) hexa(N-pentanoyl-N-{[2′-(1H-tetrazol-5-yl)biphenyl-4-yl]methyl}-L-valine)-hydrate (1/15) [LCZ696]
Reduction in death risk: 20%
Reduction in hospitalization risk: 21%
